Experimental data reported in US20230085307A1, “PYRIDAZINONE COMPOUND AND HERBICIDE” (NISSAN CHEMICAL CORPORATION, priority 2019, published 2023).

What was measured:
[1] = test system: southern crabgrass; experiment: Test Example 4: herbicidal effect by soil treatment (Table 19, symbol F); assay type: in vivo, southern crabgrass (Digitaria ciliaris); conditions: AAH 320 g/ha
Outline: (§1)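 Emulsion of test compound, water-diluted to predetermined amount, sprayed on soil after sowing (seed depth ~1.5 cm, sterilized diluvial soil). Greenhouse, 25–30° C. Effect graded at three weeks post-spray.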

[2] = test system: velvetleaf; experiment: Test Example 5: herbicidal effect by foliage application, plastic box (Table 20, symbol M); assay type: in vivo, velvetleaf (Abutilon theophrasti); conditions: foliage application, 320 g/ha, 3 weeks after application
Outline: (§2)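 Post-emergence foliar test in sterilized diluvial soil. Compound applied as water-diluted emulsion at a predetermined rate to 14-day-old plants; evaluation at three weeks.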

[3] = test system: Italian ryegrass; experiment: Test Example 5: herbicidal effect by foliage application, plastic box (Table 20, symbol K); assay type: in vivo, Italian ryegrass (Lolium multiflorum); conditions: foliage application, 320 g/ha, 3 weeks after application
Outline: as §2

[4] = test system: windgrass; experiment: Test Example 5: herbicidal effect by foliage application, plastic box (Table 20, symbol L); assay type: in vivo, windgrass (Apera spica-venti); conditions: foliage application, 320 g/ha, 3 weeks after application
Outline: as §2

[5] = test system: Chinese sprangletop; experiment: Test Example 3: herbicidal effect by foliage application, Wagner pot (Table 18, symbol D); assay type: in vivo, chinese sprangletop (Leptochloa chinensis); conditions: 320 g/ha
Outline: (§3)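 Plants were sown in alluvial soil held under 0.1–0.5 cm standing water and grown 14 days in a greenhouse at 25–30 °C. An emulsifiable formulation, water-diluted to the set dose, was then sprayed onto the foliage, and effects were scored three weeks later using previously defined criteria.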

[6] = test system: southern crabgrass; experiment: Test Example 5: herbicidal effect by foliage application, plastic box (Table 20, symbol F); assay type: in vivo, southern crabgrass (Digitaria ciliaris); conditions: foliage application, 320 g/ha, 3 weeks after application
Outline: as §2

[7] = test system: persian speedwell; experiment: Test Example 4: herbicidal effect by soil treatment (Table 19, symbol R); assay type: in vivo, Persian speedwell (Veronica persica); conditions: AAH 320 g/ha
Outline: as §1

[8] = test system: green foxtail; experiment: Test Example 4: herbicidal effect by soil treatment (Table 19, symbol G); assay type: in vivo, green foxtail (Setaria viridis); conditions: AAH 320 g/ha
Outline: as §1

[9] = test system: persian speedwell; experiment: Test Example 5: herbicidal effect by foliage application, plastic box (Table 20, symbol R); assay type: in vivo, Persian speedwell (Veronica persica); conditions: foliage application, 320 g/ha, 3 weeks after application
Outline: as §2

[10] = test system: blackgrass; experiment: Test Example 5: herbicidal effect by foliage application, plastic box (Table 20, symbol J); assay type: in vivo, blackgrass (Alopecurus myosuroides); conditions: foliage application, 320 g/ha, 3 weeks after application
Outline: as §2

[11] = test system: green foxtail; experiment: Test Example 5: herbicidal effect by foliage application, plastic box (Table 20, symbol G); assay type: in vivo, green foxtail (Setaria viridis); conditions: foliage application, 320 g/ha, 3 weeks after application
Outline: as §2

[12] = test system: wild oat; experiment: Test Example 5: herbicidal effect by foliage application, plastic box (Table 20, symbol I); assay type: in vivo, wild oat (Avena fatua); conditions: foliage application, 320 g/ha, 3 weeks after application
Outline: as §2

[13] = test system: Italian ryegrass; experiment: Test Example 4: herbicidal effect by soil treatment (Table 19, symbol K); assay type: in vivo, Italian ryegrass (Lolium multiflorum); conditions: AAH 320 g/ha
Outline: as §1

[14] = test system: blackgrass; experiment: Test Example 4: herbicidal effect by soil treatment (Table 19, symbol J); assay type: in vivo, blackgrass (Alopecurus myosuroides); conditions: AAH 320 g/ha
Outline: as §1

[15] = test system: barnyard grass; experiment: Test Example 5: herbicidal effect by foliage application, plastic box (Table 20, symbol H); assay type: in vivo, barnyard grass (Echinochloa crus-galli); conditions: foliage application, 320 g/ha, 3 weeks after application
Outline: as §2

[16] = test system: chickweed; experiment: Test Example 4: herbicidal effect by soil treatment (Table 19, symbol P); assay type: in vivo, common chickweed (Stellaria media); conditions: AAH 320 g/ha
Outline: as §1

[17] = test system: barnyard grass; experiment: Test Example 4: herbicidal effect by soil treatment (Table 19, symbol H); assay type: in vivo, barnyard grass (Echinochloa crus-galli); conditions: AAH 320 g/ha
Outline: as §1

[18] = test system: wild oat; experiment: Test Example 4: herbicidal effect by soil treatment (Table 19, symbol I); assay type: in vivo, wild oat (Avena fatua); conditions: AAH 320 g/ha
Outline: as §1

[19] = test system: lambsquarters; experiment: Test Example 5: herbicidal effect by foliage application, plastic box (Table 20, symbol O); assay type: in vivo, lambsquarters (Chenopodium album); conditions: foliage application, 320 g/ha, 3 weeks after application
Outline: as §2

[20] = test system: rice flat sedge; experiment: Test Example 3: herbicidal effect by foliage application, Wagner pot (Table 18, symbol E); assay type: in vivo, rice flat sedge (Cyperus iria); conditions: 320 g/ha
Outline: as §3

[21] = test system: barnyard grass; experiment: Test Example 3: herbicidal effect by foliage application, Wagner pot (Table 18, symbol H); assay type: in vivo, barnyard grass (Echinochloa crus-galli); conditions: 320 g/ha
Outline: as §3

[22] = test system: lambsquarters; experiment: Test Example 4: herbicidal effect by soil treatment (Table 19, symbol O); assay type: in vivo, lambsquarters (Chenopodium album); conditions: AAH 320 g/ha
Outline: as §1

[23] = test system: windgrass; experiment: Test Example 4: herbicidal effect by soil treatment (Table 19, symbol L); assay type: in vivo, windgrass (Apera spica-venti); conditions: AAH 320 g/ha
Outline: as §1

[24] = test system: velvetleaf; experiment: Test Example 4: herbicidal effect by soil treatment (Table 19, symbol M); assay type: in vivo, velvetleaf (Abutilon theophrasti); conditions: AAH 320 g/ha
Outline: as §1

[25] = test system: redroot pigweed; experiment: Test Example 4: herbicidal effect by soil treatment (Table 19, symbol N); assay type: in vivo, redroot pigweed (Amaranthus retroflexus); conditions: AAH 320 g/ha
Outline: as §1

Compound	F: southern crabgrass, herbicidal effect rating [1]	effect on velvetleaf (M) [2]	effect on Italian ryegrass (K) [3]	effect on windgrass (L) [4]	herbicidal effect on D (Chinese sprangletop), rating 0-5 [5]	effect on southern crabgrass (F) [6]	R: persian speedwell, herbicidal effect rating [7]	G: green foxtail, herbicidal effect rating [8]	effect on persian speedwell (R) [9]	effect on blackgrass (J) [10]	effect on green foxtail (G) [11]	effect on wild oat (I) [12]	K: Italian ryegrass, herbicidal effect rating [13]	J: blackgrass, herbicidal effect rating [14]	effect on barnyard grass (H) [15]	P: chickweed, herbicidal effect rating [16]	H: barnyard grass, herbicidal effect rating [17]	I: wild oat, herbicidal effect rating [18]	effect on lambsquarters (O) [19]	herbicidal effect on E (rice flat sedge), rating 0-5 [20]	also measured
CCCC(=O)Oc1c(OC)nn(C)c(=O)c1-c1c(-c2cc3ccccc3s2)sc2ccccc12 [1-197]	0 (Herbicidal rate of 5% or less (almost no effect))	3 (Herbicidal rate of 40% or more and less than 70%)	0 (Herbicidal rate of 5% or less (almost no effect))	0 (Herbicidal rate of 5% or less (almost no effect))	2 (Herbicidal rate of 20% or more and less than 40%)	0 (Herbicidal rate of 5% or less (almost no effect))	5 (Herbicidal rate of 90% or more (almost completely withered))	0 (Herbicidal rate of 5% or less (almost no effect))	5 (Herbicidal rate of 90% or more (almost completely withered))	0 (Herbicidal rate of 5% or less (almost no effect))	1 (Herbicidal rate of 5% or more and less than 20%)	0 (Herbicidal rate of 5% or less (almost no effect))	0 (Herbicidal rate of 5% or less (almost no effect))	0 (Herbicidal rate of 5% or less (almost no effect))	0 (Herbicidal rate of 5% or less (almost no effect))	5 (Herbicidal rate of 90% or more (almost completely withered))	0 (Herbicidal rate of 5% or less (almost no effect))	0 (Herbicidal rate of 5% or less (almost no effect))	1 (Herbicidal rate of 5% or more and less than 20%)	4 (Herbicidal rate of 70% or more and less than 90%)	herbicidal effect on H (barnyard grass), rating 0-5 [21]: 4 (Herbicidal rate of 70% or more and less than 90%); O: lambsquarters, herbicidal effect rating [22]: 0 (Herbicidal rate of 5% or less (almost no effect)); L: windgrass, herbicidal effect rating [23]: 0 (Herbicidal rate of 5% or less (almost no effect)); M: velvetleaf, herbicidal effect rating [24]: 0 (Herbicidal rate of 5% or less (almost no effect)); N: redroot pigweed, herbicidal effect rating [25]: 0 (Herbicidal rate of 5% or less (almost no effect))
Cc1nn(C)c(=O)c(-c2c(-c3ccc(O)cc3)sc3ccccc23)c1O [1-200]	0 (Herbicidal rate of 5% or less (almost no effect))	5 (Herbicidal rate of 90% or more (almost completely withered))	1 (Herbicidal rate of 5% or more and less than 20%)	0 (Herbicidal rate of 5% or less (almost no effect))	3 (Herbicidal rate of 40% or more and less than 70%)	3 (Herbicidal rate of 40% or more and less than 70%)	3 (Herbicidal rate of 40% or more and less than 70%)	0 (Herbicidal rate of 5% or less (almost no effect))	5 (Herbicidal rate of 90% or more (almost completely withered))	0 (Herbicidal rate of 5% or less (almost no effect))	3 (Herbicidal rate of 40% or more and less than 70%)	0 (Herbicidal rate of 5% or less (almost no effect))	0 (Herbicidal rate of 5% or less (almost no effect))	0 (Herbicidal rate of 5% or less (almost no effect))	4 (Herbicidal rate of 70% or more and less than 90%)	1 (Herbicidal rate of 5% or more and less than 20%)	0 (Herbicidal rate of 5% or less (almost no effect))	0 (Herbicidal rate of 5% or less (almost no effect))	4 (Herbicidal rate of 70% or more and less than 90%)	3 (Herbicidal rate of 40% or more and less than 70%)	herbicidal effect on H (barnyard grass), rating 0-5 [21]: 4 (Herbicidal rate of 70% or more and less than 90%); O: lambsquarters, herbicidal effect rating [22]: 0 (Herbicidal rate of 5% or less (almost no effect)); L: windgrass, herbicidal effect rating [23]: 0 (Herbicidal rate of 5% or less (almost no effect)); M: velvetleaf, herbicidal effect rating [24]: 0 (Herbicidal rate of 5% or less (almost no effect)); N: redroot pigweed, herbicidal effect rating [25]: 0 (Herbicidal rate of 5% or less (almost no effect))
